Experimental data taken from patent US20260176267A1, “PREPARATION OF IMIDAZOPYRIDINE AND IMIDAZOPYRIDAZINE DERIVATIVES AS NOVEL DIACYLGLYCERIDE O-ACYLTRANSFERASE 2 INHIBITORS” (Merck Sharp & Dohme LLC, priority 2022, published 2026).

Target: T1, human DGAT2 (hDGAT2) (Homo sapiens, UniProt Q96PD7)
T1 construct: made in house; host or cells: Sf-9 insect cells (baculovirus), membrane fraction
T1 sequence (Q96PD7 1-388): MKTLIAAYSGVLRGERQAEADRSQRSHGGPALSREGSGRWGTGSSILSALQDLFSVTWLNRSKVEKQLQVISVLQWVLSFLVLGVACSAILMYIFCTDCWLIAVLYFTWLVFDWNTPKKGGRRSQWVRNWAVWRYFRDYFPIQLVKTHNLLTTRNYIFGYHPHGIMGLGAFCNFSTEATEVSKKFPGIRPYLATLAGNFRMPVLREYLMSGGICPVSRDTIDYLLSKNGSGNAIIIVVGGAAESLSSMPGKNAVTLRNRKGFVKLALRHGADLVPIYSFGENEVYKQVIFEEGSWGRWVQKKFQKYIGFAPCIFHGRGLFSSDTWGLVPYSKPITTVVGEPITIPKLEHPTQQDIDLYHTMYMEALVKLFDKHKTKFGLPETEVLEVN
Assay: DGAT2 Enzymatic Activity Assay
Format: biochemical
Conditions: membrane prep of Sf-9 cells expressing hDGAT2; 13C18-triolein product by LC/MS/MS; 25 μM diolein, 5 μM 13C oleoyl-CoA, rt
Outline: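 Membranes from Sf-9 cells expressing untagged human DGAT2 (baculovirus, 48 h) used as enzyme at rt. The product ^13C18-triolein is quantified by LC/MS/MS against a ^13C21-triolein internal standard. Percent inhibition is taken from high and low controls, and IC50 is derived.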

SMILES | IC50
CCC1(NC(=O)c2nc3ccc(Oc4ncc(F)cc4OCC(F)F)cn3c2C)CS(=O)(=O)C1 [Example 70, 6-[[3-(2,2-difluoroethoxy)-5-fluoro-2-pyridyl]oxy]-N-(3-ethyl-1,1-dioxo-thietan-3-yl)-3-methyl-imidazo[1,2-a]pyridine-2-carboxamide] | 74.3 nM
CCC1(NC(=O)c2nc3ccc(Oc4ncc(F)cc4OCC(F)(F)F)cn3c2C)CCS(=O)(=O)CC1 [Example 77, N-(4-ethyl-1,1-dioxo-thian-4-yl)-6-[[5-fluoro-3-(2,2,2-trifluoroethoxy)-2-pyridyl]oxy]-3-methyl-imidazo[1,2-a]pyridine-2-carboxamide] | 33 nM
CCc1cnc(Oc2ccc3nc(C(=O)NC4(C)CS(=O)(=O)C4)c(C)n3c2)c(OCC(F)(F)F)c1 [Example 79, 6-[[5-ethyl-3-(2,2,2-trifluoroethoxy)-2-pyridyl]oxy]-3-methyl-N-(3-methyl-1,1-dioxo-thietan-3-yl)imidazo[1,2-a]pyridine-2-carboxamide] | 6.8 nM
Cc1c(C(=O)NC2(C)CCS(=O)(=O)CC2)nc2ccc(Oc3nccnc3OCC(F)(F)F)cn12 [Example 82, 3-methyl-N-(4-methyl-1,1-dioxo-thian-4-yl)-6-[3-(2,2,2-trifluoroethoxy)pyrazin-2-yl]oxy-imidazo[1,2-a]pyridine-2-carboxamide] | 9.1 nM
CO[C@]1(C(F)(F)F)C[C@H](NC(=O)c2nc3ccc(Oc4ncc(F)cc4OCC(F)F)cn3c2C)C1 [Example 83, 6-[[3-(2,2-difluoroethoxy)-5-fluoro-2-pyridyl]oxy]-N-[3-methoxy-3-(trifluoromethyl)cyclobutyl]-3-methyl-imidazo[1,2-a]pyridine-2-carboxamide] | 12 nM
Cc1c(C(=O)NC2(C)CCC(F)(F)CC2)nc2ccc(Oc3ncccc3OCC(F)F)cn12 [Example 86, 6-[[3-(2,2-difluoroethoxy)-2-pyridyl]oxy]-N-(4,4-difluoro-1-methyl-cyclohexyl)-3-methyl-imidazo[1,2-a]pyridine-2-carboxamide] | 6.8 nM
Cc1c(C(=O)NC2(C)CCS(=O)(=O)CC2)nc2ccc(Oc3ncccc3OCC(F)(F)F)cn12 [Example 87, 3-methyl-N-(4-methyl-1,1-dioxo-thian-4-yl)-6-[[3-(2,2,2-trifluoroethoxy)-2-pyridyl]oxy]imidazo[1,2-a]pyridine-2-carboxamide] | 17 nM
Cc1c(C(=O)NC2(C)CCS(=O)(=O)CC2)nc2ccc(Oc3ncc(F)cc3OCC(F)(F)F)cn12 [Example 88, 6-[[5-fluoro-3-(2,2,2-trifluoroethoxy)-2-pyridyl]oxy]-3-methyl-N-(4-methyl-1,1-dioxo-thian-4-yl)imidazo[1,2-a]pyridine-2-carboxamide] | 8.3 nM
Cc1c(C(=O)NC2(C)CN(C(=O)C(F)(F)F)C2)nc2ccc(Oc3ncc(F)cc3OCC(F)(F)F)cn12 [Example 89, 6-[[5-fluoro-3-(2,2,2-trifluoroethoxy)-2-pyridyl]oxy]-3-methyl-N-[3-methyl-1-(2,2,2-trifluoroacetyl)azetidin-3-yl]imidazo[1,2-a]pyridine-2-carboxamide] | 20 nM
Cc1c(C(=O)NC2(C(C)C)CCS(=O)(=O)CC2)nc2ccc(Oc3ncc(F)cc3OCC(F)(F)F)cn12 [Example 91, 6-[[5-fluoro-3-(2,2,2-trifluoroethoxy)-2-pyridyl]oxy]-N-(4-isopropyl-1,1-dioxo-thian-4-yl)-3-methyl-imidazo[1,2-a]pyridine-2-carboxamide] | 22 nM
Cc1c(C(=O)NC2(C)CCS(=O)(=O)CC2)nc2ccc(Oc3ncc(C(F)(F)F)cc3OCC(F)(F)F)cn12 [Example 92, 3-methyl-N-(4-methyl-1,1-dioxo-thian-4-yl)-6-[[3-(2,2,2-trifluoroethoxy)-5-(trifluoromethyl)-2-pyridyl]oxy]imidazo[1,2-a]pyridine-2-carboxamide] | 17 nM
Cc1c(C(=O)NC2(C)CCS(=O)(=O)CC2)nc2ccc(Oc3ncc(F)cc3OCC(C)(F)F)cn12 [Example 94, 6-[[3-(2,2-difluoropropoxy)-5-fluoro-2-pyridyl]oxy]-3-methyl-N-(4-methyl-1,1-dioxo-thian-4-yl)imidazo[1,2-a]pyridine-2-carboxamide] | 12 nM
Cc1c(C(=O)NC23CC(F)(C2)C3)nc2ccc(Oc3ncc(F)cc3OCC(F)F)cn12 [Example 99] | 56 nM

More lines, in order of falling IC50, values ahead:

IC50 | SMILES
6.7 nM | Cc1c(C(=O)NC2(C)CS(=O)(=O)C2)nc2ccc(Oc3ncc(F)cc3OCC(F)F)cn12 [Example 74, 6-[[3-(2,2-difluoroethoxy)-5-fluoro-2-pyridyl]oxy]-3-methyl-N-(3-methyl-1,1-dioxo-thietan-3-yl)imidazo[1,2-a]pyridine-2-carboxamide]
6.6 nM | Cc1c(C(=O)NC2(C)CCS(=O)(=O)CC2)nc2ccc(Oc3ncc(C(C)C)cc3OCC(F)(F)F)cn12 [Example 75, 6-[[5-isopropyl-3-(2,2,2-trifluoroethoxy)-2-pyridyl]oxy]-3-methyl-N-(4-methyl-1,1-dioxo-thian-4-yl)imidazo[1,2-a]pyridine-2-carboxamide]
6.2 nM | Cc1c(C(=O)NC2(C)CS(=O)(=O)C2)nc2ccc(Oc3ncc(Cl)cc3OCC(F)(F)F)cn12 [Example 84, 6-[[5-chloro-3-(2,2,2-trifluoroethoxy)-2-pyridyl]oxy]-3-methyl-N-(3-methyl-1,1-dioxo-thietan-3-yl)imidazo[1,2-a]pyridine-2-carboxamide]
5.7 nM | Cc1cnc(Oc2ccc3nc(C(=O)NC4(C)CS(=O)(=O)C4)c(C)n3c2)c(OCC(F)(F)F)n1 [Example 96]
5 nM | Cc1c(C(=O)NC2(C)CS(=O)(=O)C2)nc2ccc(Oc3ncccc3OCC(F)F)cn12 [Example 90, 6-[[3-(2,2-difluoroethoxy)-2-pyridyl]oxy]-3-methyl-N-(3-methyl-1,1-dioxo-thietan-3-yl)imidazo[1,2-a]pyridine-2-carboxamide]
4 nM | Cc1c(C(=O)NC2CC(C(F)(F)F)C2)nc2ccc(Oc3ncc(F)cc3OCC(F)F)cn12 (stereo not shown) [Example 97, 6-[[3-(2,2-difluoroethoxy)-5-fluoro-2-pyridyl]oxy]-3-methyl-N-[3-(trifluoromethyl)cyclobutyl] imidazo[1,2-a]pyridine-2-carboxamide]
3.8 nM | Cc1c(C(=O)NC2CS(=O)(=O)C2(C)C)nc2ccc(Oc3ncc(Cl)cc3OCC(F)F)cn12 (stereo not shown) [Example 80, 6-[[5-chloro-3-(2,2-difluoroethoxy)-2-pyridyl]oxy]-N-(2,2-dimethyl-1,1-dioxo-thietan-3-yl)-3-methyl-imidazo[1,2-a]pyridine-2-carboxamide]
3.5 nM | Cc1c(C(=O)NC2(C)CCS(=O)(=O)CC2)nc2ccc(Oc3ncc(Cl)cc3OCC3(F)CC3)cn12 [Example 81, 6-[[5-chloro-3-[(1-fluorocyclopropyl)methoxy]-2-pyridyl]oxy]-3-methyl-N-(4-methyl-1,1-dioxo-thian-4-yl)imidazo[1,2-a]pyridine-2-carboxamide]
3 nM | Cc1cnc(Oc2ccc3nc(C(=O)NC4(C)CCS(=O)(=O)CC4)c(C)n3c2)c(OCC(F)(F)F)n1 [Example 78, 3-methyl-N-(4-methyl-1,1-dioxo-thian-4-yl)-6-[5-methyl-3-(2,2,2-trifluoroethoxy)pyrazin-2-yl]oxy-imidazo[1,2-a]pyridine-2-carboxamide]
3 nM | CCOc1cc(C(F)(F)F)cnc1Oc1ccc2nc(C(=O)NC3(C)CCS(=O)(=O)CC3)c(C)n2c1 [Example 95, 6-[[3-ethoxy-5-(trifluoromethyl)-2-pyridyl]oxy]-3-methyl-N-(4-methyl-1,1-dioxo-thian-4-yl)imidazo[1,2-a]pyridine-2-carboxamide]
2.9 nM | Cc1c(C(=O)NC2CCS(=O)(=O)C(C)(C)C2)nc2ccc(Oc3ncc(F)cc3OCC(F)F)cn12 (stereo not shown) [Example 93, 6-[[3-(2,2-difluoroethoxy)-5-fluoro-2-pyridyl]oxy]-N-(2,2-dimethyl-1,1-dioxo-thian-4-yl)-3-methyl-imidazo[1,2-a]pyridine-2-carboxamide]
2.6 nM | Cc1c(C(=O)NC2(C)CCS(=O)(=O)CC2)nc2ccc(Oc3ncc(F)cc3OCC(F)F)cn12 [Example 73, 6-[[3-(2,2-difluoroethoxy)-5-fluoro-2-pyridyl]oxy]-3-methyl-N-(4-methyl-1,1-dioxo-thian-4-yl)imidazo[1,2-a]pyridine-2-carboxamide]
1.6 nM | Cc1c(C(=O)NC2(C)CN(C(=O)C(F)(F)F)C2)nc2ccc(Oc3ncc(F)cc3OCC(F)F)cn12 [Example 85, 6-[[3-(2,2-difluoroethoxy)-5-fluoro-2-pyridyl]oxy]-3-methyl-N-[3-methyl-1-(2,2,2-trifluoroacetyl)azetidin-3-yl]imidazo[1,2-a]pyridine-2-carboxamide]
1.4 nM | Cc1c(C(=O)NC2(C)CCS(=O)(=O)CC2)nc2ccc(Oc3ncc(Cl)cc3OCC(F)F)cn12 [Example 71, 6-[[5-chloro-3-(2,2-difluoroethoxy)-2-pyridyl]oxy]-3-methyl-N-(4-methyl-1,1-dioxo-thian-4-yl)imidazo[1,2-a]pyridine-2-carboxamide]
1.2 nM | Cc1c(C(=O)NC2(CC#N)CCS(=O)(=O)CC2)nc2ccc(Oc3ncc(Cl)cc3OCC(F)F)cn12 [Example 76, 6-[[5-chloro-3-(2,2-difluoroethoxy)-2-pyridyl]oxy]-N-[4-(cyanomethyl)-1,1-dioxo-thian-4-yl]-3-methyl-imidazo[1,2-a]pyridine-2-carboxamide]
